Laboratory results as given in patent US20240358692A1, “TREATMENT OF SCLERODERMA” (Aisa Pharma, Inc., priority 2023, published 2024).

Test system: participants with SSc-RP
Assay: Average duration of weekly RP attacks (minutes), patient diary
Type: in vivo, human
Description: The absolute change in average duration of weekly RP attacks from baseline to the end of each dosing period was and will be a secondary outcome variable. The sponsor-developed participant-informed diary was and will be used to record data. Average duration of weekly RP attacks is defined as the total duration of RP attacks divided by total number of RP attacks within the last 7 days of each dosing period. Total duration of RP attacks during the last 7 days of screening period divided by the total number of RP attacks will be used as baseline for the analysis of all periods. The variable will be calculated similar to frequency data as before.

[1] = Cilnidipine 20 mg, Excluding Outliers, by Baseline RCS, first RCS subgroup of table (not named), ITT Population - Part A
[2] = Cilnidipine 20 mg, by Baseline RCS, first RCS subgroup of table (not named), ITT Population - Part A
[3] = Cilnidipine 20 mg, by Baseline RCS, first subgroup of table, ITT Population - Part A
[4] = Pooled Cilnidipine 10 mg and Cilnidipine 10 mg + Tadalafil 5 mg, Excluding Outliers, ITT Population - Part A
[5] = Pooled Cilnidipine 10 mg and Cilnidipine 10 mg + Tadalafil 5 mg, ITT Population - Part A
[6] = Pooled Cilnidipine 10 mg and Cilnidipine 10 mg + Tadalafil 5 mg, by Baseline RCS, first subgroup of table, ITT Population - Part A
[7] = Pooled Cilnidipine 10 mg and Cilnidipine 10 mg + Tadalafil 5 mg, by Baseline RCS, second subgroup of table, ITT Population - Part A
[8] = Pooled Cilnidipine 20 mg and Cilnidipine 20 mg + Tadalafil 5 mg, Excluding Outliers, ITT Population - Part A
[9] = Pooled Cilnidipine 20 mg and Cilnidipine 20 mg + Tadalafil 5 mg, Excluding Outliers, by Baseline RCS, second RCS subgroup of table (not named), ITT Population - Part A
[10] = Pooled Cilnidipine 20 mg and Cilnidipine 20 mg + Tadalafil 5 mg, by Baseline RCS, first subgroup of table, ITT Population - Part A
[11] = Pooled Cilnidipine 20 mg and Cilnidipine 20 mg + Tadalafil 5 mg, by Baseline RCS, second RCS subgroup of table (not named), ITT Population - Part A
[12] = Pooled Cilnidipine 20 mg and Cilnidipine 20 mg + Tadalafil 5 mg, by Baseline RCS, second subgroup of table, ITT Population - Part A
[13] = Pooled Cilnidipine 20 mg and Cilnidipine 20 mg + Tadalafil 5 mg, last 7 days of dosing period, ITT Part A
[14] = Pooled Cilnidipine, Excluding Outliers, ITT Population - Part A
[15] = Pooled Cilnidipine, Excluding Outliers, by Baseline RCS, first RCS subgroup of table (not named), ITT Population - Part A
[16] = Pooled Cilnidipine, ITT Population - Part A
[17] = Pooled Cilnidipine, ITT Population - Part A, last 7 days of dosing period
[18] = Pooled Cilnidipine, by Baseline RCS, first RCS subgroup of table (not named), ITT Population - Part A
[19] = Pooled Cilnidipine, by Baseline RCS, first subgroup of table, ITT Population - Part A
[20] = Pooled Cilnidipine, excluding outliers, 1st baseline RCS subgroup, ITT Part A

SMILES: COCCOC(=O)C1=C(C)NC(C)=C(C(=O)OC/C=C/c2ccccc2)C1c1cccc([N+](=O)[O-])c1 (stereo not drawn) [Cilnidipine]
- Average Duration of weekly symptomatic RP attacks, Mean [1]: 16.73 min
- Average Duration of weekly symptomatic RP attacks, Median [1]: 16.73 min
- Change from Baseline in average duration of weekly symptomatic RP attacks, Mean [1]: -3.13 min
- Change from Baseline in average duration of weekly symptomatic RP attacks, Median [1]: -3.13 min
- Percent Change from Baseline in average duration of weekly symptomatic RP attacks, Mean [1]: −31.05%
- Percent Change from Baseline in average duration of weekly symptomatic RP attacks, Median [1]: −31.05%
- Average Duration of Weekly Symptomatic RP Attacks Change from Baseline, Mean (Cilnidipine 20 mg, ITT Part A): -3.13 min
- Average Duration of Weekly Symptomatic RP Attacks Change from Baseline, Median (Cilnidipine 20 mg, ITT Part A): -3.13 min
- Average Duration of Weekly Symptomatic RP Attacks Percent Change from Baseline, Mean (Cilnidipine 20 mg, ITT Part A): −31.05%
- Average Duration of Weekly Symptomatic RP Attacks Percent Change from Baseline, Median (Cilnidipine 20 mg, ITT Part A): −31.05%
- Average Duration of weekly symptomatic RP attacks, Mean [2]: 16.73 min
- Average Duration of weekly symptomatic RP attacks, Median [2]: 16.73 min
- Change from Baseline in average duration of weekly symptomatic RP attacks, Mean [2]: -3.13 min
- Change from Baseline in average duration of weekly symptomatic RP attacks, Median [2]: -3.13 min
- Percent Change from Baseline in average duration of weekly symptomatic RP attacks, Mean [2]: −31.05%
- Percent Change from Baseline in average duration of weekly symptomatic RP attacks, Median [2]: −31.05%
- Average Duration of Weekly RP Attacks (All Attacks), Mean [3]: 16.73 min
- Average Duration of Weekly RP Attacks (All Attacks), Median [3]: 16.73 min
- Average Duration of weekly symptomatic RP attacks, Median [4]: 31.64 min
- Change from Baseline in average duration of weekly symptomatic RP attacks, Mean [4]: -12.11 min
- Change from Baseline in average duration of weekly symptomatic RP attacks, Median [4]: -16.74 min
- Percent Change from Baseline in average duration of weekly symptomatic RP attacks, Mean [4]: −22.40%
- Percent Change from Baseline in average duration of weekly symptomatic RP attacks, Median [4]: −33.84%
- Average Duration of Weekly Symptomatic RP Attacks Change from Baseline, Median (Pooled Cilnidipine 10 mg and Cilnidipine 10 mg + Tadalafil 5 mg, ITT Part A): -16.74 min
- Average Duration of Weekly RP Attacks (All Attacks), Change from Baseline, Median [5]: -8.48 min
- Average Duration of Weekly RP Attacks (All Attacks), Percent Change from Baseline, Median [5]: −21.20%
- Percent Change from Baseline in average duration of weekly symptomatic RP attacks, Mean (Pooled Cilnidipine 10 mg and Cilnidipine 10 mg + Tadalafil 5 mg, by Baseline RCS, first RCS subgroup of table (not named), ITT Population - Part A): −16.67%
- Average Duration of Weekly RP Attacks (All Attacks), Change from Baseline, Mean [6]: -4.13 min
- Average Duration of Weekly RP Attacks (All Attacks), Change from Baseline, Median [6]: -4.13 min
- Average Duration of Weekly RP Attacks (All Attacks), Mean [6]: 24.76 min
- Average Duration of Weekly RP Attacks (All Attacks), Median [6]: 24.76 min
- Average Duration of Weekly RP Attacks (All Attacks), Percent Change from Baseline, Mean [6]: −9.97%
- Average Duration of Weekly RP Attacks (All Attacks), Percent Change from Baseline, Median [6]: −9.97%
- Average Duration of Weekly RP Attacks (All Attacks), Change from Baseline, Mean [7]: -20.38 min
- Average Duration of Weekly RP Attacks (All Attacks), Change from Baseline, Median [7]: -20.38 min
- Average Duration of Weekly RP Attacks (All Attacks), Mean [7]: 34.17 min
- Average Duration of Weekly RP Attacks (All Attacks), Median [7]: 34.17 min
- Average Duration of Weekly RP Attacks (All Attacks), Percent Change from Baseline, Mean [7]: −37.36%
- Average Duration of Weekly RP Attacks (All Attacks), Percent Change from Baseline, Median [7]: −37.36%
- Average Duration of weekly symptomatic RP attacks, Mean (Pooled Cilnidipine 10 mg and Cilnidipine 10 mg + Tadalafil 5 mg, last 7 days of dosing period, ITT Part A): 29.46 min
- Change from Baseline in average duration of weekly symptomatic RP attacks, Mean [8]: -7.51 min
- Change from Baseline in average duration of weekly symptomatic RP attacks, Median [8]: -3.55 min
- Percent Change from Baseline in average duration of weekly symptomatic RP attacks, Mean [8]: −16.40%
- Percent Change from Baseline in average duration of weekly symptomatic RP attacks, Median [8]: −7.30%
- Change from Baseline in average duration of weekly symptomatic RP attacks, Mean [9]: -27.00 min
- Change from Baseline in average duration of weekly symptomatic RP attacks, Median [9]: -27.00 min
- Percent Change from Baseline in average duration of weekly symptomatic RP attacks, Mean [9]: −30.00%
- Percent Change from Baseline in average duration of weekly symptomatic RP attacks, Median [9]: −30.00%
- Average Duration of Weekly RP Attacks (All Attacks), Change from Baseline, Mean [10]: 0.00 min
- Average Duration of Weekly RP Attacks (All Attacks), Change from Baseline, Median [10]: 2.16 min
- Average Duration of Weekly RP Attacks (All Attacks), Mean [10]: 15.91 min
- Average Duration of Weekly RP Attacks (All Attacks), Median [10]: 14.27 min
- Average Duration of Weekly RP Attacks (All Attacks), Percent Change from Baseline, Mean [10]: −10.70%
- Average Duration of Weekly RP Attacks (All Attacks), Percent Change from Baseline, Median [10]: 17.86%
- Change from Baseline in average duration of weekly symptomatic RP attacks, Mean [11]: -27.00 min
- Change from Baseline in average duration of weekly symptomatic RP attacks, Median [11]: -27.00 min
- Percent Change from Baseline in average duration of weekly symptomatic RP attacks, Mean [11]: −30.00%
- Percent Change from Baseline in average duration of weekly symptomatic RP attacks, Median [11]: −30.00%
- Average Duration of Weekly RP Attacks (All Attacks), Change from Baseline, Mean [12]: -19.09 min
- Average Duration of Weekly RP Attacks (All Attacks), Change from Baseline, Median [12]: -19.09 min
- Average Duration of Weekly RP Attacks (All Attacks), Mean [12]: 62.73 min
- Average Duration of Weekly RP Attacks (All Attacks), Median [12]: 62.73 min
- Average Duration of Weekly RP Attacks (All Attacks), Percent Change from Baseline, Mean [12]: −23.33%
- Average Duration of Weekly RP Attacks (All Attacks), Percent Change from Baseline, Median [12]: −23.33%
- Average Duration of weekly symptomatic RP attacks, Mean [13]: 27.98 min
- Average Duration of weekly symptomatic RP attacks, Median [13]: 22.96 min
- Duration (change) (Pooled Cilnidipine (n = 7)): 20%
- Average Duration of weekly symptomatic RP attacks, Mean [14]: 21.70 min
- Average Duration of weekly symptomatic RP attacks, Median [14]: 30.45 min
- Percent Change from Baseline in average duration of weekly symptomatic RP attacks, Median [14]: −34.60%
- Average Duration of weekly symptomatic RP attacks, Mean [15]: 21.70 min
- Average Duration of weekly symptomatic RP attacks, Median [15]: 30.45 min
- Change from Baseline in average duration of weekly symptomatic RP attacks, Mean [15]: -7.67 min
- Change from Baseline in average duration of weekly symptomatic RP attacks, Median [15]: -10.33 min
- Percent Change from Baseline in average duration of weekly symptomatic RP attacks, Mean [15]: −32.23%
- Percent Change from Baseline in average duration of weekly symptomatic RP attacks, Median [15]: −34.60%
- Average Duration of Weekly Symptomatic RP Attacks Change from Baseline, Mean (Pooled Cilnidipine, ITT Part A): -7.67 min
- Average Duration of Weekly Symptomatic RP Attacks Change from Baseline, Median (Pooled Cilnidipine, ITT Part A): -10.33 min
- Average Duration of Weekly Symptomatic RP Attacks Percent Change from Baseline, Mean (Pooled Cilnidipine, ITT Part A): −32.23%
- Average Duration of Weekly Symptomatic RP Attacks Percent Change from Baseline, Median (Pooled Cilnidipine, ITT Part A): −34.60%
- Average Duration of Weekly RP Attacks (All Attacks), Change from Baseline, Mean [16]: -3.55 min
- Average Duration of Weekly RP Attacks (All Attacks), Change from Baseline, Median [16]: -7.63 min
- Average Duration of Weekly RP Attacks (All Attacks), Percent Change from Baseline, Mean [16]: −23.71%
- Average Duration of Weekly RP Attacks (All Attacks), Percent Change from Baseline, Median [16]: −21.20%
- Average Duration of Weekly RP Attacks (All Attacks), Mean [17]: 21.66 min
- Average Duration of Weekly RP Attacks (All Attacks), Median [17]: 30.45 min
- Average Duration of weekly symptomatic RP attacks, Mean [18]: 21.70 min
- Average Duration of weekly symptomatic RP attacks, Median [18]: 30.45 min
- Change from Baseline in average duration of weekly symptomatic RP attacks, Mean [18]: -7.67 min
- Change from Baseline in average duration of weekly symptomatic RP attacks, Median [18]: -10.33 min
- Percent Change from Baseline in average duration of weekly symptomatic RP attacks, Mean [18]: −32.23%
- Percent Change from Baseline in average duration of weekly symptomatic RP attacks, Median [18]: −34.60%
- Average Duration of Weekly RP Attacks (All Attacks), Mean [19]: 21.66 min
- Average Duration of Weekly RP Attacks (All Attacks), Median [19]: 30.45 min
- Average duration of weekly RP attacks, Change from Baseline, Median [20]: -7.63 min
- Average duration of weekly RP attacks, Percent Change from Baseline, Mean [20]: −23.71%
